# According to US20230406883A1, “COMPOUNDS AND THEIR USE IN TREATMENT OF TACHYKININ RECEPTOR MEDIATED DISORDERS” (Embark Biotech ApS, priority 2020, published 2023):
# Read-outs that look alike come from different tables or passages of the source. Numbered stars: 1 amine (or outer) side, 2 acyl side, 3 side chain; on linkers, the order of the positions; unused ones are H or OH. Square brackets hold non-standard residues; d marks the D form. Peptide text beside a SMILES is read from it. * marks the point of attachment. C18 diacid = O=C(O)CCCCCCCCCCCCCCCCC(=O)*; γGlu = O=C(O)[C@H](CCC(=O)[*:2])N[*:1]; Stearoyl = CCCCCCCCCCCCCCCCCC(=O)*; NMeL = CN[C@@H](CC(C)C)C(=O)O; hSer = N[C@@H](CCO)C(=O)O; Nle = CCCC[C@H](N)C(=O)O; AEEA = NCCOCCOCC(=O)O; Aib = CC(C)(N)C(=O)O
# Columns and labels:
# hNK2R [1] = biological target: T1, hNK2R (Homo sapiens, UniProt P21452); assay: Indirect human serum albumin binding by IP3 assay, 0.2% ovalbumin vs 1% HSA; format: cell-based
# T1 construct: host or cells: COS-7
# T1 sequence (P21452 1-398): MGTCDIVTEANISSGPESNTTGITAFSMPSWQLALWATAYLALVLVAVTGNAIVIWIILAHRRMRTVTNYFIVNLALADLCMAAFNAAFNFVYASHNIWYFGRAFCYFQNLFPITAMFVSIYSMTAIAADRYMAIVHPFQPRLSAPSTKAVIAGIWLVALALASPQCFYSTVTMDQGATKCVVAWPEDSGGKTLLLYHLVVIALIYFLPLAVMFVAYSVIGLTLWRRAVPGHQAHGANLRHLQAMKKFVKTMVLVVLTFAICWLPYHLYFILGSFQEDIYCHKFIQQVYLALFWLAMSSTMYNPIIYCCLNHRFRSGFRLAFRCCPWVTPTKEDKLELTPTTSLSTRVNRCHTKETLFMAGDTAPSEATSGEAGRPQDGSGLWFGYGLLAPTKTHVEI
# Protocol: (§1) Agonist-induced G-protein coupled receptor (GPCR) activation was measured by an Inositol-1,4,5-Trisphosphate [^3H] Radioreceptor Assay (IPs Assay). Assays were carried out using COS-7 cells transiently transfected by calcium phosphate transfection with a vector pcDNA3.1(+) encoding one of the indicated receptors (Genscript). Briefly, DNA mixed with CaCl2 (2 M) and TE-buffer (10 mM Tris-HCl, 1 mM EDTA, pH 7.5) was dropwise added to 2×HBS (50 mM HEPES, 280 mM NaCl, 1.5 mM NaH2PO4, pH 7.2) and incubated for 45 min at room temperature (22±2° C.). The mixture and a final concentration of 100 μM Chloroquine were added to the cells and left to incubate for 5 hours at 37° C. under standard cell culture conditions (10% CO2) before changing medium to fresh medium containing 5 μl/mL Myo-[2-^3H(N)]-inositol (labeling medium).
# The indirect HSA binding IP3 assay takes advantage of the tachykinin receptors' ability to induce production of the inositol trisphosphate (IP3) second messenger upon agonist (ligand) binding on receptor expressing cells following an initial ^3H-inositol labeling period. The assay relies on the assumption that high peptide HSA binding will result in low receptor-mediated production of the second messenger IP3. Thus, the assay is an indirect assessment HSA binding.
# Assay solutions used: Wash buffer (HBSS), Assay buffer 0.2% OvAlb (HBSS+10 mM LiCl and 0,2% w/v ovalbumin) or Assay buffer 1% HSA (HBSS+10 mM LiCl and 1% w/v HSA), Lysis buffer (10 mM formic acid), and SPA YSI beads (12.5 mg/ml in H2O). The assay was performed the day after transfection. Briefly, labelling medium was aspirated, and plates were washed ×1 in wash buffer before adding 100 μl assay buffer 0.2% OvAlb or assay buffer 1% HSA, pre-incubated for 30 min followed by 120 min incubation with agonist, both at 37° C. After incubation, plates were immediately placed on ice and the incubation medium was aspirated and 40 μl of 10 mM formic acid per well was added. Plates were incubated for at least 30 min on ice. 60 μl (1 mg/well) SPA YSI beads/well was pipetted into a solid white 96 wells plate and 35 μl of the lysis solution was transferred to the plate before covering plates with seal cover and shaking for 10 min. (max speed). Centrifuge plates and leave for 8 hours at room temperature before counting the plates in a MicroBeta plate counter (Perkin Elmer).
# in vivo = assay: in vivo; set-up: species or system mice; conditions: mouse, sc, 0.5 mg/kg, Half-life
# Protocol: Pharmacokinetics: To evaluate the in vivo half-life of individual peptide analogues we used wild type lean mice at around 10 weeks of age injected once with a peptide analogue. For each sample time point 3-4 mice were used and blood was drawn from the submandibular vein at indicated time points following injection. Prior to injection mice were given ad libitum access to standard chow diet. Mice were subcutaneously injected with 0.5 mg/kg peptide analogue in a volume of 2 ml/kg. The amount of peptide analogue and metabolite(s) present in blood samples were measured by TF-LC-MS and MetID-LC-MS, respectively. Sample preparation: One volume of plasma is precipitated with three volumes of ethanol (with internal standard). The mixture is centrifuged at 13000 g for 20 min. One volume of supernatant is diluted with two volumes of Milli-Q water (1% formic acid). Calibration curve: peptide analogue was spiked into blank mouse plasma. Range: 0.5 to 2000 nM (linear 1/x2).
# hNK2R [2] = biological target: T1, hNK2R; assay: IP3 assay (inositol trisphosphate, 3H-myoinositol) in transiently transfected COS-7 cells; format: cell-based; conditions: for EC50: 0.2% ovalbumin buffer
# Procedure, shortened: (§2)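 COS-7 cells were transiently transfected with receptor plasmid and labelled with ³H-myo-inositol. Cells were lysed in formic acid, and ³H-inositol phosphates were captured on SPA YSI beads and counted.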
# hNK3R = biological target: T2, hNK3R (Homo sapiens, UniProt P29371); assay: as above; format: cell-based; conditions: for EC50: 0.2% ovalbumin buffer, read-out: hNK3, IP3 EC50
# T2 construct: host or cells: COS-7
# T2 sequence (P29371 1-465): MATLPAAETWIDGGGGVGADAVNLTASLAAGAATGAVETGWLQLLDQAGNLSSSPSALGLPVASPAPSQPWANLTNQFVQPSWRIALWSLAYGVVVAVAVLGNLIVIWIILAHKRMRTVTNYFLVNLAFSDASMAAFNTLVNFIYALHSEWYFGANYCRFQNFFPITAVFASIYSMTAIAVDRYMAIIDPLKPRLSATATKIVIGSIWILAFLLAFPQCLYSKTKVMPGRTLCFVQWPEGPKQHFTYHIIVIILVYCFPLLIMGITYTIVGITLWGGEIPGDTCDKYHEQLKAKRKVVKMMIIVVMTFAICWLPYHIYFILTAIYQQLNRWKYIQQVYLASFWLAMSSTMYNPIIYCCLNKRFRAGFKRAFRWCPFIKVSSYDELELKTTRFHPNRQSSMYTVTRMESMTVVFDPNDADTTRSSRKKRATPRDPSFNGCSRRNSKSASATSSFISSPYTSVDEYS
# Procedure, shortened: as §2
# hNK1R = biological target: T3, hNK1R (Homo sapiens, UniProt P25103); assay: as above; format: cell-based; conditions: for EC50: 0.2% ovalbumin buffer
# T3 construct: host or cells: COS-7
# Procedure, shortened: as §2
# hNK2R [3] = biological target: T1, hNK2R; assay: 3H-NKA competitive binding on transfected COS-7 cells; conditions: competition with 3H-NKA, 4 h at 4 C
# Protocol: as §1, with “Assays” for “Agonist-induced G-protein coupled receptor (GPCR) activation was measured by an Inositol-1,4,5-Trisphosphate [^3H] Radioreceptor Assay (IPs Assay). Assays”, “maintenance medium.” for “medium containing 5 μl/mL Myo-[2-^3H(N)]-inositol (labeling medium).”
# The ^3H-NKA binding assay measures peptide-receptor binding by a competitive principle of receptor binding between radioactively labelled (3H) NKA (tracer) and synthesized peptide ligands on live cells expressing the receptor of interest. Assay solutions used: TKR buffer (50 mM Tris/HCl pH 7.5, 5 mM MnCl2, and 150 mM NaCl), wash buffer (TKR buffer+0.2% w/v OvAlb), binding buffer (wash buffer+0.1 mg/ml Bacitracin), and tracer solution (binding buffer+˜15000 cpm/well ^3H-tracer). The assay was performed on ice the day after transfection.
# Briefly, maintenance medium was aspirated, and plates were washed ×1 in cold wash buffer before adding 100 μl cold binding buffer and placing at 4° C. to let plates cool. The cold plates were added indicated peptides (ligand) immediately followed by addition of cold tracer solution (˜15000 cpm/well). Plates were immediately moved to 4° C. and incubated for 4 hours. After incubation, binding was stopped by wash ×2 with cold wash buffer before adding 225 μl Ultima Gold XR. Plates were shaken at medium speed for approximately 30 min and left overnight at room temperature before counting the plates in a MicroBeta plate counter (Perkin Elmer).
# hNK2R [4] = biological target: T1, hNK2R; assay: Hithunter cAMP assay (Gs-coupling) in transfected COS-7 cells; format: cell-based
# Protocol: as §1, with “As a secondary measure of agonist-induced” for “Agonist-induced”, “activation cyclin adenosine monophosphate (cAMP)” for “activation”, “the Hithunter cAMP-assay from DiscoverX.” for “an Inositol-1,4,5-Trisphosphate [^3H] Radioreceptor Assay (IPs Assay).”, “maintenance medium.” for “medium containing 5 μl/mL Myo-[2-^3H(N)]-inositol (labeling medium).”
# The cAMP-assay takes advantage of the tachykinin receptors' ability to induce production of the cAMP second messenger upon agonist (ligand) binding on receptor expressing cells. Production of cAMP stems from receptor coupling to Gs-protein although coupling to Gq-protein (IP3-production) is considered the primary signalling mechanism by tachykinin receptors.
# The assay was performed the day after transfection. Briefly, maintenance medium was aspirated, and plates were washed ×1 in HBSS before adding assay buffer (HBSS+1 mM IBMX), pre-incubated for 30 min at 37° C. followed by 15 min incubation with agonist (ligand) at 37° C. After incubation, plates were subjected to cell lysis and anti-cAMP-antibody incubation as described by manufacturer. Luminescence was measured with EnVision Multimode Plate Reader from Perkin Elmer.
# [5] = 0.2% ovalbumin, read-out: hNK2R, Albumin binding EC50 (nM)-ovalbumin
# [6] = 1% HSA, read-out: hNK2R, Albumin binding EC50 (nM)-1% human serum albumin
# [7] = COS-7 cells, figure legends: percent of 10^-6 M NKA
# T3 sequence (P25103 whole entry): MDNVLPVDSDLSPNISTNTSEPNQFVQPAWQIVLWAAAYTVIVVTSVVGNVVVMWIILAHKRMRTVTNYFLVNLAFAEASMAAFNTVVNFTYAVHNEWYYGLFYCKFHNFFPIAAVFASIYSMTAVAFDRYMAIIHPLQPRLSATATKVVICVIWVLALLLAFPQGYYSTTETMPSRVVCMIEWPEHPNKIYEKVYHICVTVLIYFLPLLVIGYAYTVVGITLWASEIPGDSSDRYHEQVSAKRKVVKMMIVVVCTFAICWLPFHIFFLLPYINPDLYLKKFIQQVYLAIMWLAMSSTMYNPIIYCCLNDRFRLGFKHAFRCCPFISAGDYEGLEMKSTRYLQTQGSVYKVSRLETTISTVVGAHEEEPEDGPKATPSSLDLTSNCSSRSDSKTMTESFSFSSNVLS
half-life (in vivo),"hNK2R, IP3 Efficacy (hNK2R [2])","hNK3, IP3 Efficacy (hNK3R)","hNK1R, IP3 Efficacy (hNK1R)","hNK2R, cAMP Efficacy (hNK2R [4])",SMILES,"hNK2R, Albumin binding Efficacy (%)-ovalbumin (hNK2R [1]; 0.2% ovalbumin)",EC50 (hNK2R [1]; [5]),"hNK2R, Albumin binding Efficacy (%)-1% human serum albumin (hNK2R [1]; 1% HSA)",EC50 (hNK2R [1]; [6]),EC50 (hNK2R [2]; COS-7 cells),"hNK2R, IP3 Efficacy (hNK2R [2]; [7])",EC50 (hNK3R; COS-7 cells),"hNK3, IP3 Efficacy (hNK3R; [7])",EC50 (hNK1R; COS-7 cells),"hNK1R, IP3 Efficacy (hNK1R; [7])",EC50 (hNK2R [3]),EC50 (hNK2R [4]; COS-7 cells),"hNK2R, cAMP Efficacy (hNK2R [4]; COS-7 cells)"
1.7 h,,,,,"CCCCCCCCCCCCCCCCCC(=O)N[C@@H](CCC(=O)NCCOCCOCC(=O)NCCOCCOCC(=O)N[C@@H](CC(=O)O)C(=O)N[C@@H](CCCCN)C(=O)N[C@@H](Cc1ccc(O)cc1)C(=O)N[C@H](C(=O)NCC(=O)N(C)[C@@H](CC(C)C)C(=O)N[C@@H](CCCC)C(N)=O)C(C)C)C(=O)O [compound 390, *Asp;Lys;Tyr;Val;Gly;NmLeu;Nle;NH2] ({Stearoyl-γGlu-AEEA-AEEA}-DKYVG[NMeL][Nle]-NH2)",100%,1 nM,90%,0.7 nM,1 nM,100%,14 nM,100%,3.9 nM,88%,,,
,,,,,"COCC[C@H](NC(=O)[C@H](CC(C)C)N(C)C(=O)CNC(=O)[C@@H](NC(=O)[C@H](Cc1ccc(O)cc1)NC(=O)[C@H](CCCCN)NC(=O)[C@H](CC(=O)O)NC(=O)COCCOCCNC(=O)COCCOCCNC(=O)CC[C@H](NC(=O)CCCCCCCCCCCCCCCCC(=O)O)C(=O)O)[C@@H](C)O)C(N)=O [compound 366, *Asp;Lys;Tyr;Thr;Gly;NmLeu;Metox;NH2] ({C18 diacid-γGlu-AEEA-AEEA}-DKYTG[NMeL][hSer](Me)-NH2)",,,,,12 nM,100%,,0%,,0%,~104 nM,~120 nM,80%
,68%,0%,0%,0%,"CCCC[C@H](NC(=O)[C@H](CC(C)C)NC(=O)C(C)(C)NC(=O)[C@@H](NC(=O)[C@H](Cc1ccc(O)cc1)NC(=O)[C@H](CCCCN)NC(=O)[C@H](CC(=O)O)NC(=O)COCCOCCNC(=O)COCCOCCNC(=O)CC[C@H](NC(=O)CCCCCCCCCCCCCCCCC(=O)O)C(=O)O)C(C)C)C(N)=O [compound 395, *Asp;Lys;Tyr;Val;Aib;Leu;Nle;NH2] ({C18 diacid-γGlu-AEEA-AEEA}-DKYV[Aib]L[Nle]-NH2)",,,,,9 nM,,,,,,~104 nM,,
,,,,,"CCCCCCCCCCCCCCCCCC(=O)N[C@@H](CCC(=O)NCCOCCOCC(=O)NCCOCCOCC(=O)N[C@@H](CC(=O)O)C(=O)N[C@@H](CCCCN)C(=O)N[C@@H](Cc1ccc(O)cc1)C(=O)N[C@H](C(=O)NCC(=O)N(C)[C@@H](CC(C)C)C(=O)N[C@@H](CCOC)C(N)=O)C(C)C)C(=O)O [compound 391, *Asp;Lys;Tyr;Val;Gly;NmLeu;Metox;NH2] ({Stearoyl-γGlu-AEEA-AEEA}-DKYVG[NMeL][hSer](Me)-NH2)",100%,0.9 nM,90%,0.6 nM,0.9 nM,90%,4 nM,100%,3.4 nM,100%,,,
